The data set concerns dorsal shaved skin. Kind of data set: Rat seven-day intracutaneous skin thinning test (skin thinning and systemic effects). Type of data set: in vivo, rat (male, strain CFHB). The note with it: for Final body weight / Combined adrenal weight / Thymus weight / Spleen weight / Treated skin weight: mean; for Final body weight: 8 mg intracutaneous (16×0.5 mg), autopsy seven days later, initial body weight 200±3 g, control 249; for Combined adrenal weight / Thymus weight / Spleen weight / Treated skin weight: 8 mg intracutaneous, seven days; for Combined adrenal weight: control 41.5; for Thymus weight: control 612; for Spleen weight: control 788; for Treated skin weight: 4×4 cm area of treated skin, control 1.630; for systemic effects: conclusion in words. The method, then: Male rats strain CFHB, initial body weight 200±3 g, were used in the experiment and divided in seven groups each containing 10 animals, six groups being used for testing the compounds a-f and the seventh group serving as controls.
Each anaesthetised animal in each group received 8 mg of the respective compound injected as 16×0.5 mg suspended in 0.05 ml of suspension fluid into a 4×4 cm area of dorsal shaved skin. […]
At autopsy seven days later the spleen, adrenals, thymus and body weight were recorded in addition to the 4×4 cm area of treated skin. Table B summarises the means of the results.

With `CCCC(=O)O[C@]1(C(=O)CC)CC[C@H]2[C@@H]3CCC4=CC(=O)CC[C@]4(C)[C@H]3[C@@H](O)C[C@@]21C` [b, 11β,17dihydroxy-21-methyl-Δ^4pregnene-3,20-dione 17n-butyrate], the Final body weight came out at 249 g, the Combined adrenal weight amounted to 36.3 mg, the Thymus weight came out at 533 mg and the Spleen weight was determined as 727 mg. The Treated skin weight is listed as 1.660 g.
With `CCCCC(=O)O[C@]1(C(=O)CO)[C@@H](C)C[C@H]2[C@@H]3CCC4=CC(=O)C=C[C@]4(C)[C@@]3(F)[C@@H](O)C[C@@]21C` [f, betamethasone 17valerate], the systemic effects entry is given as “have systemic effects”, the Final body weight is listed as 229 g, the Combined adrenal weight stood at 21.5 mg and the Thymus weight came to 96 mg. The compound further gave a Spleen weight of 445 mg and a Treated skin weight of 1.445 g.
As to `CCCC(=O)O[C@]1(C(=O)CO)CC[C@H]2[C@@H]3CCC4=CC(=O)CC[C@]4(C)[C@H]3[C@@H](O)C[C@@]21C` [g, hydrocortisone 17n-butyrate], the systemic effects entry is “have systemic effects”, the Final body weight was 227 g, the Combined adrenal weight is recorded as 34.7 mg and the Thymus weight is recorded as 96 mg. The compound further yielded a Spleen weight of 503 mg and a Treated skin weight of 1.410 g.
Regarding `CC1(C)O[C@@H]2C[C@H]3[C@@H]4CCC5=CC(=O)C=C[C@]5(C)[C@@]4(F)[C@@H](O)C[C@]3(C)[C@]2(C(=O)CO)O1` [h, triamcinolone acetonide], the systemic effects entry was “have systemic effects”, the Final body weight is 142 g, the Combined adrenal weight came out at 17.4 mg and the Thymus weight turned out to be 65 mg. The same compound returned a Spleen weight of 150 mg and a Treated skin weight of 1.107 g.

The values are drawn from patent US4260605A, “Novel alkylated pregnanes, processes for their preparation and pharmaceutical compositions containing same” (Akzo N.V., priority 1979, dated 1981).
